According to patent publication US20170006866A1, “PHYTOSANITARY COMPOSITION” (INSTITUT NATIONAL DE LA RECHERCHE AGRONOMIQUE-INRA, priority 2014, published 2017):

How the values were obtained:
Format in all cases: in vivo
Myzus persicae [1] = assay: Analysis of repellent effect: choice test between control Ap3 medium and test medium, phagostimulation index; details: Myzus persicae larvae, doses 0 to 1 mM in Ap3 medium
From the text: a) Analysis of repellent effect: the method used is that developed by Yvan Rahbe (Rahbé & Febvay (1993) Entomologia Experimentalis et Applicata 67: 149-160; Chen (1996) Thesis submitted to Institut National des Sciences Appliquées, Lyon, France: 158 p) within the scope of research on the chemical determinants of the resistance of plants to various species of aphids (Aphis gossypii, Acyrthosiphon pisum), and adapted to the green aphid Myzus persicae.
The objective is to evaluate the attractive or repellent nature of a candidate molecule, at different concentrations, either with respect to control base medium (dose “0”), or with respect to another substance. […]
The medium (35 μl) is poured between two Parafilm® membranes stretched onto an Eppendorf® cone. […] The following morning, the number of aphids fixed on each medium is then recorded. […] A phagostimulation index, representing the degree of appetence of the test medium for the aphid, is calculated as follows: […]

Myzus persicae [2] = assay: Toxicity on larval growth (cumulative larval mortality on supplemented Ap3 medium), green peach aphid; details: larval growth D1-D7
Method: (§1) b) Measurement of the toxicity of chicoric acid or caftaric acid on larval growth of the green peach aphid (Myzus persicae) and the pea aphid (Acyrthosiphon pisum)
(§2) The objective is to quantify the toxic effect of chicoric acid or caftaric acid on the aphid for the period of larval growth thereof, i.e. 8 to 10 days for Myzus persicae and Acyrthosiphon pisum at 19° C. The molecule is added at different concentrations to the Ap3 control nutrient medium. The dose “0” corresponds to Ap3 medium alone.
(§3) The medium (75 μl) is poured between two UV-sterilized Parafilm® stretched onto a cylindrical PVC support (h=1.5 cm, d=2 cm), under sterile conditions.
(§4) On the Day D0, 20 neonate larvae are deposited inside the cylinder, which is then turned over and applied to a square of Parafilm©. The dishes are placed in filtered light (16 hours day/8 hours night) and in a chamber at 19° C. The fixation percentage is recorded after 1 hour as a short-term phagostimulation indicator and to check that no anomaly occurred during aphid deposition. The larval mortality is recorded daily at the end of the day. […] On the day of the imaginal moult thereof, the aphids having reached the adult aptera stage are deposited successively on a precision balance (d=0.01 mg) and the cumulative weights are recorded for each concentration of each of the two molecules tested. The individual weights are calculated subsequently. […]

Acyrthosiphon pisum = assay: Toxicity on larval growth (cumulative larval mortality on supplemented Ap3 medium), pea aphid
Method: as §1, §2, §3, §4

For `O=C(/C=C/c1ccc(O)c(O)c1)O[C@@H](C(=O)O)[C@@H](OC(=O)/C=C/c1ccc(O)c(O)c1)C(=O)O` [chicoric acid, dicaffeyl tartaric acid], the “dose from which a highly significant repellent effect is displayed” value (Myzus persicae [1]; 15 hours at 19° C.) was no less than 62.5 µM, the “repellent effect (result in words)” value (Myzus persicae [1]) was “significant repellent effect” and the larval mortality (Myzus persicae [2]; from 0.125 mM in Ap3 medium) was roughly 80%. For the same molecule, the larval mortality (Myzus persicae [2]; from 0.25 mM in Ap3 medium) was 100%, the “dose from which a very significant toxic effect (p<0.001) is observed” value (Acyrthosiphon pisum; Acyrthosiphon pisum larval growth) was no less than 0.5 mM and the mortality at 500 µM (Acyrthosiphon pisum; Acyrthosiphon pisum, read-out: larval mortality) was greater than 80%.
